Laboratory results published in patent US10369229B2, “Methods and compositions for liposomal formulation of antigens and uses thereof” (priority 2009, dated 2019).

Legend:
[1] = test system: N-MPR (2F5 epitope of HIV-1 gp41 MPR); details: BALB/C mice, Day 28 sera
Procedure: All animal procedures were conducted in accordance with the policies and approval of the appropriate Institutional Animal Care and Use Committee. 8 week-old female BALB/C mice (Jackson Laboratories, Bar Harbor, Me.) were housed in a pathogen-free barrier facility. Animals received subcutaneous immunizations in alternating hind hocks on Days 0 and 14. Each injection contained 50 μg lipopeptide, 25 μg MPL and 1 μmol lipid vehicle in 50 μL sterile phosphate-buffered saline. On Day 28 blood was collected from the submandibular vein for characterization of antibody responses. Cells were removed by centrifugation at 14,000 rpm for 15 min (5415C, Eppendorf, Westbury, N.Y.) and sera were stored at −80° C. until use.
ELISAs were developed to quantify binding of immune sera to peptides, lipids, and recombinant gp140. Peptide ELISAs were conducted using MPR peptides biotinylated as described above and captured on 96 well streptavidin-coated plates (#15120, Pierce, Rockford, Ill.). Assays were performed according to the manufacturer's instructions with modifications. […] The reaction was stopped with 0.5M H2SO4 and the yellow product was monitored at 450 nm (Optimax, Molecular Devices, Sunnyvale, Calif.). […] IgG1/IgG2a ratios were calculated as an average of optical density quotients measured at 3 dilutions after subtraction of background values. […]

[2] = Circular dichroism of liposomal lipopeptides (percent helicity); format: physicochemical; details: formulated in liposomes; estimated from θ222
Procedure: Liposomal lipopeptide samples were prepared as described above with the following modifications. Stock liposome solutions containing 5 mM carrier lipid and 500 μM lipopeptide were prepared in 10 mM phosphate, pH 7.4. To minimize light scattering, liposomes were prepared by bath sonication under argon until a size of less than 100 nm was obtained. For analysis, samples were diluted to 5 μM lipopeptide in 10 mM phosphate buffer containing 1 mM carrier lipid. Spectra were obtained with a J-715 spectrapolarimeter (Jasco, Easton, Md.) and data were processed using Jasco software. Data were acquired in continuous scanning mode with a pathlength of 1 cm, 0.1 nm interval and scan speed of 1 nm/s. Each spectrum represents an average of two scans. A background spectrum of “empty” liposomes in buffer was subtracted from each sample spectrum. Percent helicity was estimated from θ222 according to the method of Taylor and Kaiser.

## N-MPR: peptide corresponding to the 2F5 epitope of HIV-1 gp41 MPR (SEQ ID NO: 2) (NEQELLELDKWASLWNGGK)
[1]
  mice with detected anti-peptide response: 2 of 5
[2]
  helicity (helical content): 20.7%
